Test results taken from patent US7803930B2, “Antisense modulation of apolipoprotein B-expression” (Isis Pharmaceuticals, Inc., priority 2002, dated 2010).
In the oligonucleotide strings, read from the 5' end, every base follows the letter of its sugar. An asterisk marks phosphorothioate; unmarked linkages are phosphodiester. Other units and linkages are bracketed, terminal groups are in braces. A string of capitals states the bases alone. e = 2'-O-(2-methoxyethyl) (MOE); [5mC] = 5-methylcytosine; d = 2'-deoxy (DNA)

Columns and labels:
[1] = tested on: apolipoprotein B mRNA; experiment: ob/ob mice (Example 50): apolipoprotein B mRNA levels in liver; type: in vivo, mouse; details: high fat high cholesterol diet, 50 mg/kg i.p. twice a week, six weeks
Protocol: (§1) Ob/ob mice receiving a high fat, high cholesterol diet (60% kcal fat supplemented with 0.15% cholesterol) were treated with one of several oligonucleotides to evaluate their effect on apolipoprotein B-related phenotypic endpoints in ob/ob mice. After overnight fasting, mice from each group were dosed intraperitoneally twice a week with 50 mg/kg of ISIS 147483 (SEQ ID NO: 79), or 147764 (SEQ ID NO: 109), or the controls ISIS 116847 (SEQ ID NO: 857), or 141923 (SEQ ID NO: 858), or saline for six weeks. At study termination and forty eight hours after the final injections, animals were sacrificed and evaluated for target mRNA levels in liver, cholesterol and triglyceride levels, liver enzyme levels, serum glucose levels, and PTEN levels.

[2] = ob/ob mice (Example 50): cholesterol, lipid, triglyceride, liver enzyme and glucose levels; type: in vivo, mouse; details: high fat high cholesterol diet, 50 mg/kg i.p. twice a week, six weeks
Protocol: as §1

[3] = tested on: mouse apolipoprotein B mRNA; experiment: High fat fed mice (Example 65): mouse apolipoprotein B mRNA and serum cholesterol levels; type: in vivo
Protocol: (§2) Male C57Bl/6 mice were divided into the following groups, consisting of 5 animals each: (1) mice on a lean diet, injected with saline (lean control); (2) mice on a high fat diet; (3) mice on a high fat diet injected with 50 mg/kg of the control oligonucleotide 141923 (SEQ ID NO: 858); (4) mice on a high fat diet given 20 mg/kg atorvastatin calcium (Lipitor®, Pfizer Inc.); (5) mice on a high fat diet injected with 10, 25 or 50 mg/kg ISIS 147764 (SEQ ID NO: 109). Saline and oligonucleotide treatments were administered intraperitoneally twice weekly for 6 weeks. Atorvastatin was administered daily for 6 weeks. At study termination, liver samples were isolated from each animal and RNA was isolated for Northern blot qualitative assessment, DNA microarray and quantitative real-time PCR. Northern blot assessment and quantitative real-time PCR were performed as described by other examples herein.
(§3) Mouse apolipoprotein B mRNA and serum cholesterol levels, measured as described herein, were evaluated to confirm antisense inhibition by ISIS 147764 and ISIS 147483. […] The 50 mg/kg dose of ISIS 147483 increased ALT and AST levels.

[4] = High fat fed mice (Example 65): ALT and AST levels; type: in vivo, mouse
Protocol: as §2, §3

[5] = tested on: apolipoprotein B mRNA; experiment: Lean mice, 6 weeks (Example 66): apolipoprotein B mRNA; type: in vivo, mouse
Protocol: (§4) The accumulation of lipids in liver tissue was also evaluated in lean mice. Male […] mice (Charles River Laboratories (Wilmington, Mass.) at 6 to 7 weeks of age were maintained on a standard rodent diet and were treated twice weekly with intraperitoneal injections of 25 or 50 mg/kg 147764 (SEQ ID NO: 109) or 147483 (SEQ ID NO: 79) for 6 weeks. Saline treated animals served as controls. Each treatment group was comprised of 4 animals. Animals were sacrificed after the 6 week treatment period, at which point liver tissue and serum were collected.
Apolipoprotein B mRNA levels were measured by real-time PCR as described by other examples herein. The data, shown in Table 51, represent the average of 4 animals and are presented as inhibition relative to saline treated controls.

[6] = Lean mice, 6 weeks (Example 66): serum lipids and liver enzymes; type: in vivo, mouse; details: serum
Protocol: as §4
Total cholesterol, LDL-cholesterol, HDL-cholesterol and triglycerides in serum were measured by routine clinical analysis using an Olympus Clinical Analyzer (Olympus America Inc., Melville, N.Y.). The liver enzymes ALT and […] in serum were also measured using the Olympus Clinical Analyzer.

**Q.** Which “apolipoprotein B mRNA levels” value [1] does the source give for “ATGTCAATGCCACATGTCCA (antisense eA*eT*eG*eT*e[5mC]*dA*dA*dT*dG*d[5mC]*d[5mC]*dA*d[5mC]*dA*dT*eG*eT*e[5mC]*e[5mC]*eA) [ISIS 147483]” here?
**A.** Its value is “able to lower”.

**Q.** And the “glucose, cholesterol, and triglyceride levels” value [2]?
**A.** The value was “able to lower”.

**Q.** What about the “mouse apolipoprotein B mRNA and serum cholesterol levels” value [3] of the same sequence?
**A.** The value was “lowered in a dose-dependent manner”.

**Q.** What about the “ALT and AST levels” value ([4]; 50 mg/kg) of the same sequence?
**A.** The value was “increased”.

**Q.** And the “ALT or AST levels” value ([4]; 10 and 25 mg/kg)?
**A.** The value was “did not significantly elevate”.

**Q.** What about the “% Inhibition apolipoprotein B mRNA” value ([5]; 25 mg/kg i.p. twice weekly) of the same sequence?
**A.** The value was 79%.

**Q.** And the “% Inhibition apolipoprotein B mRNA” value ([5]; 50 mg/kg i.p. twice weekly)?
**A.** The value was 91%.

**Q.** What about the “inhibition of apolipoprotein B mRNA expression” value ([5]; 25 or 50 mg/kg i.p. twice weekly) of the same sequence?
**A.** The value was “in a dose-dependent manner”.

**Q.** And the HDL-cholesterol ([6]; 25 mg/kg i.p. twice weekly)?
**A.** The HDL-cholesterol was 117 mg/dL.

**Q.** And the LDL-cholesterol ([6]; 25 mg/kg i.p. twice weekly)?
**A.** Its LDL-cholesterol is 26 mg/dL.

**Q.** And the “Liver Enzymes ALT” value ([6]; 25 mg/kg i.p. twice weekly)?
**A.** The value was 73 IU/L.

**Q.** What about the “Liver Enzymes AST” value ([6]; 25 mg/kg i.p. twice weekly) of the same sequence?
**A.** Its value is 78 IU/L.

**Q.** And the Total cholesterol ([6]; 25 mg/kg i.p. twice weekly)?
**A.** The Total cholesterol was 153 mg/dL.

**Q.** And the Triglycerides ([6]; 25 mg/kg i.p. twice weekly)?
**A.** The Triglycerides was 138 mg/dL.

**Q.** What about the HDL-cholesterol ([6]; 50 mg/kg i.p. twice weekly) of the same sequence?
**A.** The HDL-cholesterol was 131 mg/dL.

**Q.** And the LDL-cholesterol ([6]; 50 mg/kg i.p. twice weekly)?
**A.** The LDL-cholesterol was 39 mg/dL.

**Q.** What about the “Liver Enzymes ALT” value ([6]; 50 mg/kg i.p. twice weekly) of the same sequence?
**A.** The value was 57 IU/L.

**Q.** And the “Liver Enzymes AST” value ([6]; 50 mg/kg i.p. twice weekly)?
**A.** The value was 72 IU/L.

**Q.** And the Total cholesterol ([6]; 50 mg/kg i.p. twice weekly)?
**A.** The Total cholesterol was 183 mg/dL.

**Q.** What about the Triglycerides ([6]; 50 mg/kg i.p. twice weekly) of the same sequence?
**A.** Its Triglycerides is 127 mg/dL.
